Each structure is given as a SMILES string. Calls of active or inactive are those of the source. The calls are words filed in the database; no cut-off is given here.

In ChEMBL document CHEMBL1153850, “Novel derivatives of 6-mercaptopurine: synthesis, characterization and antiproliferative activities of S-allylthio-mercaptopurines” (Eur J Med Chem, 2009) one finds Activity and IC50 data, which are given here for six molecules.

Experiment [1] relates to NCI-N87. Kind of experiment: Antiproliferative activity against human NCI-N87 cells at 150 uM after 16 hrs by XTT assay. The experiment is classed as functional.
For experiment [2], the system named is NCI-N87. As to the kind of experiment: Antiproliferative activity against human NCI-N87 cells assessed as residual proliferation at 50 uM after 16 hrs by XTT assay. It counts as functional.
In experiment [3] the test system is Daudi. Kind of experiment: Antiproliferative activity against human Daudi cells assessed as residual proliferation at 50 uM after 16 hrs by XTT assay. It counts as functional.
In experiment [4] the test system is Daudi. As to the kind of experiment: Antiproliferative activity against human Daudi cells assessed as residual proliferation at 100 uM after 16 hrs by XTT assay. The experiment is classed as functional.
Experiment [5] concerns NCI-N87. As to the kind of experiment: Antiproliferative activity against human NCI-N87 cells assessed as residual proliferation at 100 uM after 16 hrs by XTT assay. It counts as functional.
Experiment [6] has as its system HL-60. Kind of experiment: Antiproliferative activity against human HL60 cells assessed as [methyl-3H]thymidine incorporation after 16 hrs by XTT assay. The experiment is classed as functional, cell-based. The following applies: HL-60, 16 h.
Experiment [7] relates to U-937. Kind of experiment: Antiproliferative activity against human U937 cells assessed as [methyl-3H]thymidine incorporation after 16 hrs by XTT assay. The experiment is classed as functional, cell-based. The following applies: U-937, 16 h.
Experiment [8] relates to MOLT-4. As to the kind of experiment: Antiproliferative activity against human MOLT4 cells assessed as [methyl-3H]thymidine incorporation after 16 hrs by XTT assay. The experiment is classed as functional, cell-based. The following applies: MOLT-4, 16 h.
The test system of experiment [9] is Jurkat. Kind of experiment: Antiproliferative activity against human Jurkat cells assessed as [methyl-3H]thymidine incorporation after 16 hrs by XTT assay. It counts as functional, cell-based.
The subject of experiment [10] is HT-29. As to the kind of experiment: Antiproliferative activity against multidrug-resistant human HT-29 cells assessed as [methyl-3H]thymidine incorporation after 16 hrs by XTT assay. It counts as functional, cell-based. As to conditions: HT-29, 16 h.
Experiment [11] deals with Daudi. Kind of experiment: Antiproliferative activity against human Daudi cells assessed as [methyl-3H]thymidine incorporation after 16 hrs by XTT assay. It counts as functional, cell-based.
In experiment [12] the test system is HeLa. As to the kind of experiment: Antiproliferative activity against human HeLa cells assessed as [methyl-3H]thymidine incorporation after 16 hrs by XTT assay. It counts as functional, cell-based.
The subject of experiment [13] is NCI-N87. As to the kind of experiment: Antiproliferative activity against human NCI-N87 cells assessed as [methyl-3H]thymidine incorporation after 16 hrs by XTT assay. The experiment is classed as functional, cell-based. As to conditions: for IC50: NCI-N87, 16 h.
Experiment [14] has as its system PBMC. Kind of experiment: Inhibition of T cell mitogen-induced blastogenesis in human PBMC after 4 days. It counts as functional, cell-based. The following applies: 96 h.
A short description of experiment [15]: Induction of apoptosis in human B-CLL cells after 48 hrs by FACS analysis. The experiment is classed as functional, cell-based.
Experiment [16] can be described thus: Induction of apoptosis in human B-CLL cells assessed as increase in apoptotic cells at 50 uM after 16 hrs by FACS analysis. The experiment is classed as functional.
A short description of experiment [17]: Induction of apoptosis in human B-CLL cells assessed as increase in apoptotic cells at 100 uM after 16 hrs by FACS analysis. It counts as functional.
The test system of experiment [18] is Daudi. As to the kind of experiment: Antiproliferative activity against human Daudi cells at 50 uM after 16 hrs by XTT assay. The experiment is classed as functional.
The test system of experiment [19] is Daudi. Kind of experiment: Antiproliferative activity against human Daudi cells at <=20 uM assessed as [methyl-3H]thymidine incorporation after 16 hrs by XTT assay relative to control. It counts as functional.
The test system of experiment [20] is NCI-N87. Kind of experiment: Antiproliferative activity against human NCI-N87 at 100 uM assessed as [methyl-3H]thymidine incorporation after 16 hrs by XTT assay relative to control. The experiment is classed as functional, cell-based.
Experiment [21] concerns HeLa. As to the kind of experiment: Antiproliferative activity against human HeLa cells at 110 uM assessed as [methyl-3H]thymidine incorporation after 16 hrs by XTT assay relative to control. The experiment is classed as functional, cell-based.
In experiment [22] the test system is HT-29. As to the kind of experiment: Cytotoxicity against multidrug-resistant human HT-29 cells assessed as reduced cell viability at 150 uM by trypan blue exclusion assay relative to control. The experiment is classed as functional.
For experiment [23], the system named is HeLa. Kind of experiment: Cytotoxicity against human HeLa cells assessed as reduced cell viability at 150 uM by trypan blue exclusion assay relative to control. It counts as functional.
The subject of experiment [24] is Daudi. As to the kind of experiment: Cytotoxicity against human Daudi cells assessed as residual cell viability at 50 uM after 16 hrs by trypan blue exclusion assay relative to control. The experiment is classed as functional.
Experiment [25] is described as follows: Cytotoxicity against human B-CLL cells assessed as residual cell viability at 150 uM after 16 hrs by trypan blue exclusion assay relative to control. It counts as functional.
Experiment [26] concerns HT-29. Kind of experiment: Cytotoxicity against multidrug-resistant human HT-29 cells assessed as inhibition of epithelial-like growth at 150 uM after 16 hrs using propidium iodide staining by phase-contrast microscopy. The experiment is classed as functional, cell-based.
For experiment [27], the system named is HT-29. Kind of experiment: Induction of multidrug-resistant human HT-29 cell death at 150 uM after 16 hrs using propidium iodide staining by fluorescence microscopy. It counts as functional, cell-based.
For experiment [28], the system named is HeLa. As to the kind of experiment: Antiproliferative activity against human HeLa cells assessed as cell viability after 16 hrs by [methyl-3H]thymidine incorporation based XTT assay relative to control. It counts as functional.
Experiment [29] concerns HL-60. Kind of experiment: Antiproliferative activity against human HL60 cells assessed as cell viability after 16 hrs by [methyl-3H]thymidine incorporation based XTT assay relative to control. The experiment is classed as functional.
Experiment [30] is described as follows: Induction of apoptosis in human B-CLL cells assessed as increase in apoptotic cells at 150 uM after 16 hrs by FACS analysis. The experiment is classed as functional.
The nature of experiment [31]: Antiproliferative activity against human B-CLL cells assessed as cell viability after 16 hrs by trypan blue exclusion assay. The experiment is classed as functional, cell-based.
For experiment [32], the system named is HeLa. As to the kind of experiment: Cytotoxicity against human HeLa cells assessed as reduced cell viability at 200 uM by trypan blue exclusion assay relative to control. It counts as functional.

As for `C=CCSSc1ncnc2c1ncn2[C@H]1O[C@@H](CO)[C@H](O)[C@@H]1O`, the outcome in experiment [1] was Active. The Activity was found to be 70% in experiment [2], 60% in experiment [3], 25% in [4] and 55% in [5]. In addition, the IC50 in experiment [6] was 86.1 µM; in experiment [7], 113 µM; in experiment [8], 16.9 µM; in experiment [9], 69.1 µM; in experiment [10], above 200 µM; in experiment [11] it was 70.8 µM. Moreover, the results for the IC50 in [12] and in experiment [13] were above 200 µM and 120 µM, respectively.
Consider `Cn1cnc([N+](=O)[O-])c1Sc1ncnc2[nH]cnc12` [AZATHIOPRINE], for which the midpoint of inhibition in [14], the IC50, lay at 230 nM.
For the molecule `C=CCS[S+]([O-])CC=C` (stereo not drawn) [ALLICIN], the IC50 in experiment [6] was determined as 5.5 µM; in experiment [7] it was 19.7 µM; in experiment [10], 83.8 µM; in experiment [15], 20 µM; in experiment [11], 35.3 µM; in experiment [13] it was 16.8 µM.
Regarding `C=CCSSc1ncnc2nc[nH]c12`, the Activity is 37.88% in experiment [16]; 95.26% in [17]; 15% in experiment [18]; 50% in experiment [2]; “Dose-dependent effect” in experiment [11]; “Dose-dependent effect” in experiment [12]. For the same molecule, the Activity entry is “Dose-dependent effect” in experiment [13]; 50% in [19]; 40% in [22]; 65% in [23]; 20% in [24]; 75% in experiment [25]. Moreover, the IC50 in experiment [6] was 42 µM; in [7] it was 46.7 µM; in experiment [8], 8.9 µM; in experiment [9], 54.7 µM; in experiment [11], 38.3 µM; in [13] it was 70.5 µM. Moreover, the outcome in experiment [20], in [21], in [26] and in experiment [27] was Active.
Turning to `OC[C@@H]1O[C@H](n2cnc3c(S)ncnc32)[C@@H](O)[C@H]1O`, the Activity in experiment [1] is recorded as 75%. The outcome in experiment [28] and in experiment [29] was inactive. The 50% inhibitory concentration (IC50) in [7] was above 200 µM; in experiment [8], 24.8 µM; in [9], 99 µM.
For the molecule `Sc1ncnc2nc[nH]c12` [MERCAPTOPURINE ANHYDROUS], the Activity in experiment [16] was 9.78%; in [17], 9.7%; in experiment [30] it was 8.68%; in experiment [1], 80%; in experiment [11], “Dose-dependent effect”; in experiment [12], “Dose-dependent effect”. In addition, the Activity entry was “Dose-dependent effect” in experiment [13] and 75% in [32]. In addition, the IC50 is above 200 µM in experiment [7]; 50.5 µM in [8]; above 200 µM in experiment [9]; above 200 µM in experiment [31]; above 200 µM in experiment [10]; 150 nM in experiment [14]. Also, the IC50 in experiment [11] and in experiment [12] was above 200 µM in each case. Moreover, the result in experiment [19], in experiment [20], in [21] and in [26] was inactive.
